Experiments:
Mus musculus [1] = experiment: Neurotoxicity against Mus musculus MFI (mouse) assessed as muscle twitching at 90 mg/kg, ip; assay type: toxicity, organism-based, Muscle tissue; parameters: dose 90 mg/kg, route intraperitoneal; settings: in vivo
Mus musculus [2] = experiment: Neurotoxicity against Mus musculus MFI (mouse) assessed as tremors at 90 mg/kg, ip; assay type: toxicity, organism-based; parameters: dose 90 mg/kg, route intraperitoneal; settings: in vivo
Mus musculus [3] = experiment: Neurotoxicity against Mus musculus MFI (mouse) assessed as irritability at 90 mg/kg, ip; assay type: toxicity, organism-based; parameters: dose 90 mg/kg, route intraperitoneal; settings: in vivo
Mus musculus [4] = experiment: Neurotoxicity against Mus musculus MFI (mouse) assessed as effect on respiration at 90 mg/kg, ip; assay type: toxicity, organism-based; parameters: dose 90 mg/kg, route intraperitoneal; settings: in vivo
Mus musculus [5] = experiment: Neurotoxicity against Mus musculus MFI (mouse) assessed as eye protrusion at 90 mg/kg, ip; assay type: toxicity, organism-based; parameters: dose 90 mg/kg, route intraperitoneal; settings: in vivo
Mus musculus [6] = experiment: Neurotoxicity against Mus musculus MFI (mouse) assessed as skeletal muscle incoordination at 90 mg/kg, ip; assay type: toxicity, organism-based, Muscle tissue; parameters: dose 90 mg/kg, route intraperitoneal; settings: in vivo
Mus musculus [7] = experiment: Neurotoxicity against Mus musculus MFI (mouse) assessed as hair erection at 90 mg/kg, ip; assay type: toxicity, organism-based; parameters: dose 90 mg/kg, route intraperitoneal; settings: in vivo
Mus musculus [8] = experiment: Neurotoxicity against Mus musculus MFI (mouse) assessed as tail erection at 90 mg/kg, ip; assay type: toxicity, organism-based; parameters: dose 90 mg/kg, route intraperitoneal; settings: in vivo
Mus musculus [9] = experiment: Neurotoxicity against Mus musculus MFI (mouse) assessed as epilepsy at 90 mg/kg, ip; assay type: toxicity, organism-based; parameters: dose 90 mg/kg, route intraperitoneal; settings: in vivo
Mus musculus [10] = experiment: Neurotoxicity against Mus musculus MFI (mouse) assessed as excitation at 90 mg/kg, ip; assay type: toxicity, organism-based; parameters: dose 90 mg/kg, route intraperitoneal; settings: in vivo
Mus musculus [11] = experiment: […] activity in Mus musculus MFI (mouse) assessed as inhibition of PBQ-induced writhing at 90 mg/kg, ip administered 1.5 hr prior to PBQ-challenge measured after 10 min relative to aspirin; assay type: functional; settings: route intraperitoneal
Mus musculus [12] = experiment: […] activity in ip dosed Mus musculus MFI (mouse) assessed as inhibition of PBQ-induced writhing administered 1.5 hr prior to PBQ-challenge measured after 10 min; assay type: functional; settings: read-out: MED
Mus musculus [13] = experiment: Neurotoxicity in ip dosed Mus musculus MFI (mouse); assay type: toxicity, organism-based; settings: in vivo
Mus musculus [14] = experiment: Neurotoxicity against Mus musculus MFI (mouse) assessed as muscle twitching at 50 mg/kg, ip; assay type: toxicity, organism-based, Muscle tissue; parameters: dose 50 mg/kg, route intraperitoneal; settings: in vivo
Mus musculus [15] = experiment: Neurotoxicity against Mus musculus MFI (mouse) assessed as tremors at 50 mg/kg, ip; assay type: toxicity, organism-based; parameters: dose 50 mg/kg, route intraperitoneal; settings: in vivo
Mus musculus [16] = experiment: Neurotoxicity against Mus musculus MFI (mouse) assessed as effect on respiration at 50 mg/kg, ip; assay type: toxicity, organism-based; parameters: dose 50 mg/kg, route intraperitoneal; settings: in vivo
Mus musculus [17] = experiment: Neurotoxicity against Mus musculus MFI (mouse) assessed as irritability at 50 mg/kg, ip; assay type: toxicity, organism-based; parameters: dose 50 mg/kg, route intraperitoneal; settings: in vivo
Mus musculus [18] = experiment: Neurotoxicity against Mus musculus MFI (mouse) assessed as eye protrusion at 50 mg/kg, ip; assay type: toxicity, organism-based; parameters: dose 50 mg/kg, route intraperitoneal; settings: in vivo
Mus musculus [19] = experiment: Neurotoxicity against Mus musculus MFI (mouse) assessed as skeletal muscle incoordination at 50 mg/kg, ip; assay type: toxicity, organism-based, Muscle tissue; parameters: dose 50 mg/kg, route intraperitoneal; settings: in vivo
Mus musculus [20] = experiment: Neurotoxicity against Mus musculus MFI (mouse) assessed as hair erection at 50 mg/kg, ip; assay type: toxicity, organism-based; parameters: dose 50 mg/kg, route intraperitoneal; settings: in vivo
Mus musculus [21] = experiment: Neurotoxicity against Mus musculus MFI (mouse) assessed as tail erection at 50 mg/kg, ip; assay type: toxicity, organism-based; parameters: dose 50 mg/kg, route intraperitoneal; settings: in vivo
Mus musculus [22] = experiment: Neurotoxicity against Mus musculus MFI (mouse) assessed as epilepsy at 50 mg/kg, ip; assay type: toxicity, organism-based; parameters: dose 50 mg/kg, route intraperitoneal; settings: in vivo
Mus musculus [23] = experiment: Neurotoxicity against Mus musculus MFI (mouse) assessed as excitation at 50 mg/kg, ip; assay type: toxicity, organism-based; parameters: dose 50 mg/kg, route intraperitoneal; settings: in vivo
Mus musculus [24] = experiment: Neurotoxicity against Mus musculus MFI (mouse) assessed as tremors at 135 mg/kg, ip; assay type: toxicity, organism-based; parameters: dose 135 mg/kg, route intraperitoneal; settings: in vivo
Mus musculus [25] = experiment: Neurotoxicity against Mus musculus MFI (mouse) assessed as muscle twitching at 135 mg/kg, ip; assay type: toxicity, organism-based, Muscle tissue; parameters: dose 135 mg/kg, route intraperitoneal; settings: in vivo
Mus musculus [26] = experiment: Neurotoxicity against Mus musculus MFI (mouse) assessed as irritability at 135 mg/kg, ip; assay type: toxicity, organism-based; parameters: dose 135 mg/kg, route intraperitoneal; settings: in vivo
Mus musculus [27] = experiment: Neurotoxicity against Mus musculus MFI (mouse) assessed as effect on respiration at 135 mg/kg, ip; assay type: toxicity, organism-based; parameters: dose 135 mg/kg, route intraperitoneal; settings: in vivo
Mus musculus [28] = experiment: Neurotoxicity against Mus musculus MFI (mouse) assessed as eye protrusion at 135 mg/kg, ip; assay type: toxicity, organism-based; parameters: dose 135 mg/kg, route intraperitoneal; settings: in vivo
Mus musculus [29] = experiment: Neurotoxicity against Mus musculus MFI (mouse) assessed as skeletal muscle incoordination at 135 mg/kg, ip; assay type: toxicity, organism-based, Muscle tissue; parameters: dose 135 mg/kg, route intraperitoneal; settings: in vivo
Mus musculus [30] = experiment: Neurotoxicity against Mus musculus MFI (mouse) assessed as hair erection at 135 mg/kg, ip; assay type: toxicity, organism-based; parameters: dose 135 mg/kg, route intraperitoneal; settings: in vivo
Mus musculus [31] = experiment: Neurotoxicity against Mus musculus MFI (mouse) assessed as epilepsy at 135 mg/kg, ip; assay type: toxicity, organism-based; parameters: dose 135 mg/kg, route intraperitoneal; settings: in vivo
Mus musculus [32] = experiment: Neurotoxicity against Mus musculus MFI (mouse) assessed as tail erection at 135 mg/kg, ip; assay type: toxicity, organism-based; parameters: dose 135 mg/kg, route intraperitoneal; settings: in vivo
Mus musculus [33] = experiment: Neurotoxicity against Mus musculus MFI (mouse) assessed as excitation at 135 mg/kg, ip; assay type: toxicity, organism-based; parameters: dose 135 mg/kg, route intraperitoneal; settings: in vivo
Mus musculus [34] = experiment: […] activity in Mus musculus MFI (mouse) assessed as inhibition of PBQ-induced writhing at 50 mg/kg, ip administered 1.5 hr prior to PBQ-challenge measured after 10 min relative to aspirin; assay type: functional; settings: route intraperitoneal
Mus musculus [35] = experiment: […] activity in Mus musculus MFI (mouse) assessed as inhibition of PBQ-induced writhing at 135 mg/kg, ip administered 1.5 hr prior to PBQ-challenge measured after 10 min relative to aspirin; assay type: functional; settings: route intraperitoneal

## CC(CN1CCN(C)CC1)Oc1cccc(Cl)c1Cl.O=C(O)C(=O)O (racemic)
Mus musculus [1]
  Activity: Toxic
Mus musculus [2]
  Activity: Toxic
Mus musculus [3]
  Activity: Toxic
Mus musculus [4]
  Activity: Toxic
Mus musculus [5]
  Activity: Toxic
Mus musculus [6]
  Activity: Toxic
Mus musculus [7]
  Activity: Toxic
Mus musculus [8]
  Activity: Toxic
Mus musculus [9]
  Activity: Toxic
Mus musculus [10]
  Activity: Toxic
Mus musculus [11]
  inhibition in vivo at 90 mg/kg: 85%

## CC(COc1cc(Cl)ccc1Cl)N1CCN(C)CC1.O=C(O)C(=O)O (racemic)
Mus musculus [12]
  minimal effective dose: 60 mg/kg
Mus musculus [13]
  MTC: 90 mg/kg
Mus musculus [14]
  Activity: Toxic
Mus musculus [15]
  Activity: Toxic
Mus musculus [16]
  Activity: Toxic
Mus musculus [17]
  Activity: Toxic
Mus musculus [18]
  Activity: Toxic
Mus musculus [19]
  Activity: Toxic
Mus musculus [20]
  Activity: Toxic
Mus musculus [21]
  Activity: Toxic
Mus musculus [22]
  Activity: Toxic
Mus musculus [23]
  Activity: Toxic
Mus musculus [1]
  Activity: Toxic
Mus musculus [2]
  Activity: Toxic
Mus musculus [3]
  Activity: Toxic
Mus musculus [4]
  Activity: Toxic
Mus musculus [5]
  Activity: Toxic
Mus musculus [6]
  Activity: Toxic
Mus musculus [7]
  Activity: Toxic
Mus musculus [8]
  Activity: Toxic
Mus musculus [9]
  Activity: Toxic
Mus musculus [10]
  Activity: Toxic
Mus musculus [24]
  Activity: Toxic
Mus musculus [25]
  Activity: Toxic
Mus musculus [26]
  Activity: Toxic
Mus musculus [27]
  Activity: Toxic
Mus musculus [28]
  Activity: Toxic
Mus musculus [29]
  Activity: Toxic
Mus musculus [30]
  Activity: Toxic
Mus musculus [31]
  Activity: Toxic
Mus musculus [32]
  Activity: Toxic
Mus musculus [33]
  Activity: Toxic
Mus musculus [34]
  inhibition in vivo at 50 mg/kg: 50%
Mus musculus [11]
  inhibition in vivo at 90 mg/kg: 62.5%
Mus musculus [35]
  inhibition in vivo at 135 mg/kg: 100%

Source: ChEMBL document CHEMBL3044925, “Synthesis of piperazino and morpholino derivatives of aryloxypropane with potential analgesic and possible antimigraine activities” (Med Chem Res, 2011)
